Assay: xn = mol fraction of the nth substance listed
Conditions: 100.7 kPa, Liquid; for speed of sound: Frequency=3 MHz, Sing-around technique in a fixed-path interferometer; for mass density: Vibrating tube method

CCCCCCn1cc[n+](C)c1.F[P-](F)(F)(F)(F)F [1-hexyl-3-methylimidazolium hexafluorophosphate] + C1CCOC1
Conditions | mass density [kg/m3] | speed of sound [m/s]
293.15 K, x1 = 0.1036 | 1001.33 | 1328.7
293.15 K, x1 = 0.2002 | 1074.85 | 1349.2
293.15 K, x1 = 0.2868 | 1123.69 | 1366.6
293.15 K, x1 = 0.4134 | 1175.92 | 1385.4
293.15 K, x1 = 0.5222 | 1209.22 | 1398.2
293.15 K, x1 = 0.6239 | 1233.91 | 1408.8
293.15 K, x1 = 0.6951 | 1248.83 | 1414.7
293.15 K, x1 = 0.7978 | 1267.15 | 1423.7
293.15 K, x1 = 0.8953 | 1282.62 | 1430.4
293.15 K, x1 = 1 | 1296.72 | 1437.7
298.15 K, x1 = 0.1036 | 996.523 | 1308.8
298.15 K, x1 = 0.2002 | 1070.1 | 1330.9
298.15 K, x1 = 0.2868 | 1119.03 | 1348.8
298.15 K, x1 = 0.4134 | 1171.43 | 1370
298.15 K, x1 = 0.5222 | 1204.92 | 1383.3
298.15 K, x1 = 0.6239 | 1229.78 | 1394.6
298.15 K, x1 = 0.6951 | 1244.72 | 1400.1
298.15 K, x1 = 0.7978 | 1263.02 | 1409.8
298.15 K, x1 = 0.8953 | 1278.55 | 1417.1
298.15 K, x1 = 1 | 1292.62 | 1424.3
303.15 K, x1 = 0.1036 | 991.33 | 1287.5
303.15 K, x1 = 0.2002 | 1065.16 | 1311.7
303.15 K, x1 = 0.2868 | 1114.11 | 1331.2
303.15 K, x1 = 0.4134 | 1166.92 | 1352.9
303.15 K, x1 = 0.5222 | 1200.49 | 1367.7
303.15 K, x1 = 0.6239 | 1225.49 | 1379.7
303.15 K, x1 = 0.6951 | 1240.35 | 1386.4
303.15 K, x1 = 0.7978 | 1258.87 | 1395.8
303.15 K, x1 = 0.8953 | 1274.54 | 1403.8
303.15 K, x1 = 1 | 1288.61 | 1411.5
308.15 K, x1 = 0.1036 | 986.423 | 1267.3
308.15 K, x1 = 0.2002 | 1060.21 | 1293.6
308.15 K, x1 = 0.2868 | 1109.47 | 1314.3
308.15 K, x1 = 0.4134 | 1162.51 | 1338.2
308.15 K, x1 = 0.5222 | 1196.52 | 1353.7
308.15 K, x1 = 0.6239 | 1221.41 | 1365.4
308.15 K, x1 = 0.6951 | 1236.28 | 1372.3
308.15 K, x1 = 0.7978 | 1255.02 | 1382.1
308.15 K, x1 = 0.8953 | 1270.73 | 1390.9
308.15 K, x1 = 1 | 1284.72 | 1399
313.15 K, x1 = 0.1036 | 981.583 | 1247
313.15 K, x1 = 0.2002 | 1055.56 | 1275.7
313.15 K, x1 = 0.2868 | 1105.02 | 1298
313.15 K, x1 = 0.4134 | 1158.19 | 1322.6
313.15 K, x1 = 0.5222 | 1192.16 | 1339.2
313.15 K, x1 = 0.6239 | 1217.23 | 1351.9
313.15 K, x1 = 0.6951 | 1232.35 | 1358.4
313.15 K, x1 = 0.7978 | 1251.08 | 1369.7
313.15 K, x1 = 0.8953 | 1266.85 | 1379.6
313.15 K, x1 = 1 | 1280.82 | 1386.9
318.15 K, x1 = 0.1036 | 976.176 | 1226.8
318.15 K, x1 = 0.2002 | 1050.65 | 1257.8
318.15 K, x1 = 0.2868 | 1100.21 | 1281.7
318.15 K, x1 = 0.4134 | 1153.59 | 1307.3
318.15 K, x1 = 0.5222 | 1187.55 | 1324.1
318.15 K, x1 = 0.6239 | 1212.63 | 1337.8
318.15 K, x1 = 0.6951 | 1227.99 | 1345.7
318.15 K, x1 = 0.7978 | 1246.87 | 1357.4
318.15 K, x1 = 0.8953 | 1262.74 | 1367.7
318.15 K, x1 = 1 | 1276.37 | 1375
323.15 K, x1 = 0.1036 | 971.026 | 1207.5
323.15 K, x1 = 0.2002 | 1045.83 | 1240.6
323.15 K, x1 = 0.2868 | 1095.6 | 1265.7
323.15 K, x1 = 0.4134 | 1148.94 | 1291.2
323.15 K, x1 = 0.5222 | 1183.5 | 1309.2
323.15 K, x1 = 0.6239 | 1208.58 | 1323.8
323.15 K, x1 = 0.6951 | 1224.2 | 1332.8
323.15 K, x1 = 0.7978 | 1243.02 | 1345.3
323.15 K, x1 = 0.8953 | 1258.69 | 1355.6
323.15 K, x1 = 1 | 1272.45 | 1363.3

CCCCCCCC[n+]1ccn(C)c1.F[P-](F)(F)(F)(F)F [1-octyl-3-methylimidazolium hexafluorophosphate] + C1CCOC1
Conditions | mass density [kg/m3] | speed of sound [m/s]
293.15 K, x1 = 0.0767 | 972.545 | 1319.1
293.15 K, x1 = 0.1791 | 1048.06 | 1338.4
293.15 K, x1 = 0.2783 | 1097.51 | 1356
293.15 K, x1 = 0.3996 | 1139.52 | 1371.5
293.15 K, x1 = 0.5198 | 1169.49 | 1384.1
293.15 K, x1 = 0.612 | 1187.49 | 1392.2
293.15 K, x1 = 0.6957 | 1201.25 | 1399
293.15 K, x1 = 0.7754 | 1212.53 | 1405.2
293.15 K, x1 = 0.8991 | 1227.92 | 1414
293.15 K, x1 = 1 | 1238.77 | 1421.2
298.15 K, x1 = 0.0767 | 967.476 | 1297.5
298.15 K, x1 = 0.1791 | 1043.39 | 1320.2
298.15 K, x1 = 0.2783 | 1092.94 | 1339.2
298.15 K, x1 = 0.3996 | 1135.15 | 1355.5
298.15 K, x1 = 0.5198 | 1165.32 | 1368.6
298.15 K, x1 = 0.612 | 1183.35 | 1376.8
298.15 K, x1 = 0.6957 | 1197.12 | 1383.9
298.15 K, x1 = 0.7754 | 1208.52 | 1390.5
298.15 K, x1 = 0.8991 | 1223.83 | 1399.8
298.15 K, x1 = 1 | 1234.79 | 1406.5
303.15 K, x1 = 0.0767 | 962.388 | 1276.5
303.15 K, x1 = 0.1791 | 1038.59 | 1302.6
303.15 K, x1 = 0.2783 | 1088.35 | 1322.5
303.15 K, x1 = 0.3996 | 1130.86 | 1340.1
303.15 K, x1 = 0.5198 | 1161.03 | 1353.2
303.15 K, x1 = 0.612 | 1179.13 | 1361.9
303.15 K, x1 = 0.6957 | 1193.04 | 1369.2
303.15 K, x1 = 0.7754 | 1204.52 | 1376.1
303.15 K, x1 = 0.8991 | 1219.78 | 1385.8
303.15 K, x1 = 1 | 1230.84 | 1392.4
308.15 K, x1 = 0.0767 | 957.488 | 1254.8
308.15 K, x1 = 0.1791 | 1033.77 | 1283.4
308.15 K, x1 = 0.2783 | 1083.82 | 1304.2
308.15 K, x1 = 0.3996 | 1126.53 | 1323.2
308.15 K, x1 = 0.5198 | 1157 | 1338.3
308.15 K, x1 = 0.612 | 1175.28 | 1347.8
308.15 K, x1 = 0.6957 | 1189.11 | 1355.3
308.15 K, x1 = 0.7754 | 1200.62 | 1362.2
308.15 K, x1 = 0.8991 | 1216.13 | 1371.3
308.15 K, x1 = 1 | 1227.09 | 1379
313.15 K, x1 = 0.0767 | 952.422 | 1231.1
313.15 K, x1 = 0.1791 | 1028.9 | 1263.7
313.15 K, x1 = 0.2783 | 1079.26 | 1286.5
313.15 K, x1 = 0.3996 | 1122.17 | 1309.5
313.15 K, x1 = 0.5198 | 1152.84 | 1324.6
313.15 K, x1 = 0.612 | 1171.22 | 1334
313.15 K, x1 = 0.6957 | 1185.14 | 1341.6
313.15 K, x1 = 0.7754 | 1196.65 | 1348.4
313.15 K, x1 = 0.8991 | 1212.37 | 1357.6
313.15 K, x1 = 1 | 1223.3 | 1365.8
318.15 K, x1 = 0.0767 | 947.162 | 1209
318.15 K, x1 = 0.1791 | 1024.04 | 1242.4
318.15 K, x1 = 0.2783 | 1074.69 | 1268.7
318.15 K, x1 = 0.3996 | 1117.75 | 1292.1
318.15 K, x1 = 0.5198 | 1148.57 | 1309.3
318.15 K, x1 = 0.612 | 1167.05 | 1319.7
318.15 K, x1 = 0.6957 | 1181.01 | 1327
318.15 K, x1 = 0.7754 | 1192.68 | 1333.4
318.15 K, x1 = 0.8991 | 1208.44 | 1342.7
318.15 K, x1 = 1 | 1219.5 | 1351.2
323.15 K, x1 = 0.0767 | 941.999 | 1185.7
323.15 K, x1 = 0.1791 | 1019.03 | 1222.6
323.15 K, x1 = 0.2783 | 1069.89 | 1250.7
323.15 K, x1 = 0.3996 | 1113.1 | 1276.2
323.15 K, x1 = 0.5198 | 1144.07 | 1294.4
323.15 K, x1 = 0.612 | 1162.61 | 1305.3
323.15 K, x1 = 0.6957 | 1176.74 | 1313
323.15 K, x1 = 0.7754 | 1188.63 | 1319.2
323.15 K, x1 = 0.8991 | 1204.28 | 1329.8
323.15 K, x1 = 1 | 1215.42 | 1338
